# In patent US8932826B2, “Method for simultaneously determining multiple coagulation proteases” (Siemens Healthcare Diagnostics Products GmbH, priority 2010, dated 2015):
# Assays:
# human factor Xa = human factor Xa (Homo sapiens, UniProt P00742); assay: Simultaneous chromogenic determination of factor Xa inhibition in enriched normal plasma (Z-D-Leu-Gly-Arg-ANBA-methylamide, 405 nm); assay type: biochemical
# Procedure: (§1) The following components were mixed to form one reaction: • 10 μl sample • 10 μl pool of normal human plasma • 40 μl substrate reagent (4 mM Z-D-Leu-Gly-Arg-ANBA-methylamide, 0.8 mM Tos-Gly-Pro-Arg-Basic Blue 49 in mannitol buffer, pH 4.0) • 100 μl factor Xa reagent (0.75 U/ml human factor Xa in 4.5 g/l TRIS, 9 g/l NaCl, 0.56 g/l EDTA, pH 8.0) • 100 μl thrombin reagent (5 U/ml bovine thrombin in 1.2 g/l TRIS, pH 8.2)
# (§2) The sample used was normal human plasma. Factor Xa cleaves ANBA from the factor Xa-specific peptide substrate Z-D-Leu-Gly-Arg-ANBA-methylamide, increasing over time the optical density in the reaction at a wavelength of 405 nm. At the same time, thrombin cleaves Basic Blue 49 from the thrombin-specific peptide substrate Tos-Gly-Pro-Arg-Basic Blue 49, increasing over time the optical density in the reaction at a wavelength of 575 nm.
# (§3) The measurements of the optical densities of the reaction at 405 nm and 575 nm and the evaluation of the reaction kinetics were carried out simultaneously in a fully automated Sysmex® CS-2000i coagulation analyzer. To measure the optical densities, the reaction was irradiated alternately with light of the aforementioned wavelengths, and the absorbance of the light, caused by the coloration of the reaction, was determined as a function of wavelength and time.
# (§4) The increases in the reaction kinetics for normal plasma without inhibitors were defined as 100% of the respective enzyme activity.
# bovine thrombin = bovine thrombin (Bos taurus, UniProt P00735); assay: Simultaneous chromogenic determination of thrombin inhibition in enriched normal plasma (Tos-Gly-Pro-Arg-Basic Blue 49, 575 nm); assay type: biochemical
# Procedure: as §1, §2, §3
# Normal plasma was enriched with various concentrations of rivaroxaban, a specific factor Xa inhibitor, and/or of argatroban, a specific thrombin inhibitor, and used as a sample in a method as per example 1.
# as §4
# Chain of human factor Xa (P00742 235-488 limits assumed): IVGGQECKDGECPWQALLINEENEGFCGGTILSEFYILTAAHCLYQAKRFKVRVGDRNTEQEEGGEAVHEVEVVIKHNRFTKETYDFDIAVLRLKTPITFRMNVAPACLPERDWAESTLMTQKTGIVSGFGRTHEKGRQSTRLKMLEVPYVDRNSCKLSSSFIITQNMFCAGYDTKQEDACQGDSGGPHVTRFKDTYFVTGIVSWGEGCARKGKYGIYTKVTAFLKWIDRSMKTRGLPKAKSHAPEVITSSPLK
# Chain of human factor Xa (P00742 41-179 partner limits assumed): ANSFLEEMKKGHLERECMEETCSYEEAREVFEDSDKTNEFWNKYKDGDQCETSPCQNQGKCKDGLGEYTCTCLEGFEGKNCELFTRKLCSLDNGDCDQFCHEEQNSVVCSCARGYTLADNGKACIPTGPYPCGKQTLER
"inhibition at 0.375 µg/mL (human factor Xa; normal plasma enriched with argatroban 375 ng/ml, rivaroxaban 0 ng/ml, read-out: F Xa inhibition [%]) [%]","inhibition at 0.75 µg/mL (human factor Xa; normal plasma enriched with argatroban 750 ng/ml, rivaroxaban 0 ng/ml, read-out: F Xa inhibition [%]) [%]","inhibition at 0.375 µg/mL (bovine thrombin; normal plasma enriched with argatroban 375 ng/ml, rivaroxaban 0 ng/ml) [%]","inhibition at 0.75 µg/mL (bovine thrombin; normal plasma enriched with argatroban 750 ng/ml, rivaroxaban 0 ng/ml) [%]","inhibition of thrombin activity, in words (FIG. 2) (bovine thrombin; samples having an increased argatroban concentration, irrespective of the rivaroxaban concentration)","inhibition at 0.125 µg/mL (human factor Xa; normal plasma enriched with rivaroxaban 125 ng/ml, argatroban 0 ng/ml, read-out: F Xa inhibition [%]) [%]","inhibition at 0.25 µg/mL (human factor Xa; normal plasma enriched with rivaroxaban 250 ng/ml, argatroban 0 ng/ml, read-out: F Xa inhibition [%]) [%]","inhibition of factor Xa activity, in words (FIG. 1) (human factor Xa; samples having an increased rivaroxaban concentration, irrespective of the argatroban concentration)","inhibition at 0.25 µg/mL (bovine thrombin; normal plasma enriched with rivaroxaban 250 ng/ml, argatroban 0 ng/ml) [%]",Structure (SMILES)
0,0,18,31,increased thrombin inhibition,,,,,"CC1CNc2c(cccc2S(=O)(=O)N[C@@H](CCCNC(=N)N)C(=O)N2CC[C@@H](C)C[C@@H]2C(=O)O)C1 (stereo partly drawn) [Argatroban, argatroban]"
,,,,,42,65,increased factor Xa inhibition,5,"O=C(NC[C@H]1CN(c2ccc(N3CCOCC3=O)cc2)C(=O)O1)c1ccc(Cl)s1 [Rivaroxaban, rivaroxaban]"
